Key:
[1] = PK experiments in rats, plasma compound (I) after oral dosing; format: in vivo, Han Wistar rats; conditions: for Observed metabolite, In vivo PK study after oral dosing (rats) / conversion to compound (I) in vivo: oral dosing, rats
Experimental: Plasma was placed on water-ice following collection. Final storage at approximately −70° C.
Mobile phase B: Acetonitrile. […] Flow rate 0.5 mL/min.
The rats had unrestricted access to the diet.
Mobile phase B: Acetonitrile+0.2% formic acid. […] Flow rate 0.3 mL/min.
The rats received a standard laboratory diet Teklad 2014C. The rats had unrestricted access to the diet.

human 5-HT2B receptor = human 5-HT2B receptor (Homo sapiens (Human), UniProt P41595); experiment: 5-HT2B agonist activity assay (IP1 production, HTRF); format: cell-based; conditions: for activity at 10 µM: read-out: 5-HT2B agonist activity, percent of control response
human 5-HT2B receptor, sequence (P41595 whole entry): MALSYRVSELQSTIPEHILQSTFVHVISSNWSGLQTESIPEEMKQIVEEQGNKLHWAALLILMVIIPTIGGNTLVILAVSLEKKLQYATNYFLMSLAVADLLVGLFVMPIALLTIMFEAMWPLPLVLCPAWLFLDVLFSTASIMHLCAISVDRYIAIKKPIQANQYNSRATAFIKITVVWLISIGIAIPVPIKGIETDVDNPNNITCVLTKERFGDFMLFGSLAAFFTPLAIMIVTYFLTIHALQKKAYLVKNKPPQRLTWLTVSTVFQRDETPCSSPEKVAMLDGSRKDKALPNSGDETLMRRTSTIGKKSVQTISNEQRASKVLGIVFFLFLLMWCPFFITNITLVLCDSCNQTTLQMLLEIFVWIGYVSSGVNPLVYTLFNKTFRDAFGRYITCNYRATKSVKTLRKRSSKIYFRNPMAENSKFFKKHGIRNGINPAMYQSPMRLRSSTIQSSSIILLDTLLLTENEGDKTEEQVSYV
Experimental: Evaluation of the agonist activity of compounds (I), (Ia), (Ib), (Ic), (Ia-iab), compound (2), compound (9), compound (15), compound (27), A2, A3, and A7 at the human 5-HT2B receptor was performed by Eurofins/Cerep (France) measuring the compound effects on inositol monophosphate (IP1) production using the HTRF detection method. Briefly, the human 5-HT2B receptor was expressed in transfected CHO cells. The cells were suspended in a buffer containing 10 mM Hepes/NaOH (pH 7.4), 4.2 mM KCl, 146 mM NaCl, 1 mM CaCl2, 0.5 mM MgCl2, 5.5 mM glucose and 50 mM LiCl, then distributed in microplates at a density of 4100 cells/well and incubated for 30 minutes at 37° C. in the presence of buffer (basal control), test compound or reference agonist. For stimulated control measurement, separate assay wells contained 1 μM 5-HT. Following incubation, the cells were lysed and the fluorescence acceptor (fluorophen D2-labeled IP1) and fluorescence donor (anti-IP1 antibody labeled with europium cryptate) were added. After 60 minutes at room temperature, the fluorescence transfer was measured at lambda(Ex) 337 nm and lambda(Em) 620 and 665 nm using a microplate reader (Rubystar, BMG). The IP1 concentration was determined by dividing the signal measured at 665 nm by that measured at 620 nm (ratio). The results were expressed as a percent of the control response to 1 μM 5-HT. The standard reference agonist was 5-HT, which was tested in each experiment at several concentrations to generate a concentration-response curve from which its EC50 value is calculated as described above for dopamine functional assays.

[2] = Conversion of compounds in human plasma; format: in vitro ADME; conditions: for Observed metabolite, Incubation in human plasma: 1 μM test compound, 37° C., 0-6 hr, nd: not detected; for appearance of compound (I) / conversion in vitro: incubation in human plasma and/or human hepatocytes
Experimental: Frozen human plasma was thawed and then centrifuged at 3200×g for 5 min to remove debris. The pH value of the supernatant was then measured and adjusted to 7.4±0.1 by adding 1% phosphoric acid or 1 N sodium hydroxide. 2 μL of dosing solution (50 μM for test compounds and 100 μM for positive control (propantheline bromide)) was mixed with 98 μL of blank plasma to achieve 1 μM test compound and 2 μM positive control of final concentration. The mixture was incubated, and samples were withdrawn from the incubations at the pre-determined time points of 0, 0.5, 1, 2, 4 and 6 hr (in duplicate) at 37° C. in water bath. At each corresponding time point 10 μL inhibitor and 20 μL ascorbic acid and 2 μL formic acid (20%) are added, and then added 400 μL of “stop solution” (200 ng/mL tolbutamide plus 200 ng/mL labetalol in 50% ACN/MeOH) to precipitate protein. The substance was mixed thoroughly and thereafter Centrifugated at 4,000 rpm for 20 minutes. Then an aliquot of supernatant (50 μL) was transferred from each well to a sample plate and mixed with 100 μL ultrapure water. The plate was shaked at 800 rpm for about 10 minutes before submitting to LC-MS/MS analysis.
Mass spectrometer (LC-MS/MS) Shimadzu LC 20-AD Shimadzu UHPLC API 4000. Analytical column ACQUITY UPLC® BEH Phenyl 1.7 μm 2.1×50 mm. Mobile phase A: 0.1% Formic Acid in Water. Mobile phase B: 0.1% Formic Acid in Acetonitrile. […] Flow rate 0.7 mL/min.

SMILES | activity at 10 µM (human 5-HT2B receptor) [%] | Observed metabolite, Incubation in human plasma [2] | appearance of compound (I) / conversion in vitro [2] | also measured
CCCN1CCC[C@@H]2Cc3c(ccc(OC(=O)C(C)(C)C)c3OC(=O)C(C)(C)C)C[C@H]21 [(Ic), reference compound] | -5 | – | – | plasma concentrations of compound (I) after oral dosing (in words) ([1]; oral dosing to Wistar rats): extremely low
CCCN1CCC[C@@H]2Cc3c(ccc(O)c3O[C@@H]3O[C@H](C(=O)OC)[C@@H](OC(C)=O)[C@H](OC(C)=O)[C@H]3OC(C)=O)C[C@H]21 [Compound (2), (2S,3R,4S,5S,6S)-2-(((4aR,10aR)-7-hydroxy-1-propyl-1,2,3,4,4a,5,10,10a-octahydrobenzo[g]quinolin-6-yl)oxy)-6-(methoxycarbonyl)tetrahydro-2H-pyran-3,4,5-triyl triacetate] | 10 | Compound (Id-ia) | no appearance of compound (I) | Observed metabolite, In vivo PK study after oral dosing (rats) [1]: Compound (I); conversion to compound (I) in vivo [1]: showed conversion in vivo
CCCN1CCC[C@@H]2Cc3c(ccc(O)c3O[C@@H]3OC(C(=O)OC)=C[C@H](OC(C)=O)[C@H]3OC(C)=O)C[C@H]21 [Compound (3), (2R,3R,4S)-2-(((4aR,10aR)-7-hydroxy-1-propyl-1,2,3,4,4a,5,10,10a-octahydrobenzo[g]quinolin-6-yl)oxy)-6-(methoxycarbonyl)-3,4-dihydro-2H-pyran-3,4-diyl diacetate] | – | Compound (9) | – | –
CCCN1CCC[C@@H]2Cc3c(ccc(OCc4ccccc4)c3O[C@@H]3O[C@H](C(=O)O)[C@@H](O)[C@H](O)[C@H]3O)C[C@H]21 [Compound (4), (2S,3S,4S,5R,6S)-6-(((4aR,10aR)-7-(benzyloxy)-1-propyl-1,2,3,4,4a,5,10,10a-octahydrobenzo[g]quinolin-6-yl)oxy)-3,4,5-trihydroxytetrahydro-2H-pyran-2-carboxylic acid] | – | Compound A2 | – | –
CCCN1CCC[C@@H]2Cc3c(ccc(O)c3O[C@@H]3OC(C(=O)O)=C[C@H](O)[C@H]3O)C[C@H]21 [Compound (9), (2R,3R,4S)-3,4-dihydroxy-2-(((4aR,10aR)-7-hydroxy-1-propyl-1,2,3,4,4a,5,10,10a-octahydrobenzo[g]quinolin-6-yl)oxy)-3,4-dihydro-2H-pyran-6-carboxylic acid] | 9 | – | no appearance of compound (I) | conversion to compound (I) in vivo [1]: showed conversion in vivo
CCCN1CCC[C@@H]2Cc3c(ccc(O)c3O[C@@H]3O[C@H](C(=O)OCC)[C@@H](OC(C)=O)[C@H](OC(C)=O)[C@H]3OC(C)=O)C[C@H]21 [Compound (11), (2S,3S,4S,5R,6S)-2-(ethoxycarbonyl)-6-(((4aR,10aR)-7-hydroxy-1-propyl-1,2,3,4,4a,5,10,10a-octahydrobenzo[g]quinolin-6-yl)oxy)tetrahydro-2H-pyran-3,4,5-triyl triacetate] | – | – | converted to compound (Id-ia) | –
CCCN1CCC[C@@H]2Cc3c(ccc(O)c3O[C@@H]3O[C@H](C(=O)OCC)[C@@H](OC(=O)C(C)(C)C)[C@H](OC(=O)C(C)(C)C)[C@H]3OC(=O)C(C)(C)C)C[C@H]21 [Compound (14), (2S,3S,4S,5R,6S)-2-(ethoxycarbonyl)-6-(((4aR,10aR)-7-hydroxy-1-propyl-1,2,3,4,4a,5,10,10a-octahydrobenzo[g]quinolin-6-yl)oxy)tetrahydro-2H-pyran-3,4,5-triyl tris(2,2-dimethylpropanoate)] | – | Compound (6) | – | –
CCCN1CCC[C@@H]2Cc3c(ccc(OC)c3O[C@@H]3O[C@H](C(=O)O)[C@@H](O)[C@H](O)[C@H]3O)C[C@H]21 [Compound (15), (2S,3S,4S,5R,6S)-3,4,5-trihydroxy-6-(((4aR,10aR)-7-methoxy-1-propyl-1,2,3,4,4a,5,10,10a-octahydrobenzo[g]quinolin-6-yl)oxy)tetrahydro-2H-pyran-2-carboxylic acid] | 0 | – | no appearance of compound (I) | conversion to compound (I) in vivo [1]: showed conversion in vivo
CCCN1CCC[C@@H]2Cc3c(ccc(O)c3O[C@@H]3O[C@H](C(=O)OC)[C@@H](OC(=O)C(C)(C)C)[C@H](OC(=O)C(C)(C)C)[C@H]3OC(=O)C(C)(C)C)C[C@H]21 [Compound (26), (2S,3S,4S,5R,6S)-2-(methoxycarbonyl)-6-(((4aR,10aR)-7-hydroxy-1-propyl-1,2,3,4,4a,5,10,10a-octahydrobenzo[g]quinolin-6-yl)oxy)tetrahydro-2H-pyran-3,4,5-triyl tris(2,2-dimethylpropanoate)] | – | Compound (6) | – | –
CCCN1CCC[C@@H]2Cc3c(ccc(O[C@@H]4O[C@H](C(=O)OC)[C@@H](OC(C)=O)[C@H](OC(C)=O)[C@H]4OC(C)=O)c3O)C[C@H]21 [Compound (27), (2S,3R,4S,5S,6S)-2-(((4aR,10aR)-6-hydroxy-1-propyl-1,2,3,4,4a,5,10,10a-octahydrobenzo[g]quinolin-7-yl)oxy)-6-(methoxycarbonyl)tetrahydro-2H-pyran-3,4,5-triyl triacetate] | 2 | Compound (Id-ib) | – | Observed metabolite, In vivo PK study after oral dosing (rats) [1]: Compound (I)
CCCN1CCC[C@@H]2Cc3c(ccc(OCc4ccccc4)c3O)C[C@H]21.I [Compound A2, (4aR,10aR)-7-(Benzyloxy)-1-propyl-1,2,3,4,4a,5,10,10a-octahydrobenzo[g]quinolin-6-ol hydroiodide] | 30 | – | – | Observed metabolite, In vivo PK study after oral dosing (rats) [1]: Compound (I)
CCCN1CCC[C@@H]2Cc3c(ccc(O[C@@H]4O[C@H](C(=O)OC)[C@@H](OC(C)=O)[C@H](OC(C)=O)[C@H]4OC(C)=O)c3OC(C)=O)C[C@H]21 [Compound A3, (2S,3R,4S,5S,6S)-2-(((4aR,10aR)-6-Acetoxy-1-propyl-1,2,3,4,4a,5,10,10a-octahydrobenzo[g]quinolin-7-yl)oxy)-6-(methoxycarbonyl)tetrahydro-2H-pyran-3,4,5-triyl triacetate] | – | compound (27) | – | 5-HT2B agonist activity, percent of control response (human 5-HT2B receptor; @ 10 μM): 3% @ 10 μM
CCCN1CCC[C@@H]2Cc3c(ccc(O[C@@H]4O[C@H](C(=O)OC)[C@@H](OC(C)=O)[C@H](OC(C)=O)[C@H]4OC(C)=O)c3O[C@@H]3O[C@H](C(=O)OC)[C@@H](OC(C)=O)[C@H](OC(C)=O)[C@H]3OC(C)=O)C[C@H]21 [Compound I2, methyl (2S,3S,4S,5R,6S)-6-[[(4aR,10aR)-1-propyl-6-[(2S,3R,4S,5S,6S)-3,4,5-triacetoxy-6-methoxycarbonyl-tetrahydropyran-2-yl]oxy-3,4,4a,5,10,10a-hexahydro-2H-benzo[g]quinolin-7-yl]oxy]-3,4,5-triacetoxy-tetrahydropyran-2-carboxylate] | – | – | no vitro conversion | –

From patent US12384765B2, “Catecholamine prodrugs for use in the treatment of Parkinson's Disease” (H. Lundbeck A/S, priority 2019, dated 2025)
